Data taken from article PMC11249646, “Small-Molecule Disruptors of the Interaction between Calcium- and Integrin-Binding Protein 1 and Integrin αIIbβ3 as Novel Antiplatelet Agents” (ACS Pharmacology & Translational Science, 2024).
Like-named read-outs stand apart in the source and are kept apart here.

Columns and labels:
Assay type in all cases: binding
[1] = target: T1, CIB1 and αIIb interaction (CIB1-GST : F-αIIb peptide) (Homo sapiens, UniProt Q99828); assay: FP assay, 1536-well qHTS format (primary and confirmatory screen); conditions: for CONFIRMATORY SCREEN Confirm?: YES/NO call; for CONFIRMATORY SCREEN Curve Class: qHTS curve class; for CONFIRMATORY SCREEN Curve Class / Curve Class: negative sign = inhibitory curve; for CONFIRMATORY SCREEN Efficacy (%) / Efficacy (%): negative = inhibition
T1 construct: made in house; host or cells: BL-21 plus RIL cells (E. coli)
T1 sequence (Q99828 1-191): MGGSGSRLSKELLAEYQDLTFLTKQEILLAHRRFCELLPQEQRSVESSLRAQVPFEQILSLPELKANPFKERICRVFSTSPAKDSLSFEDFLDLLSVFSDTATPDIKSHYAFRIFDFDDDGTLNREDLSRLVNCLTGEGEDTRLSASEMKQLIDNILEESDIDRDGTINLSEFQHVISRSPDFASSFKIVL

[2] = target: T2, GST-CIB1 : F-scrambled peptide (Homo sapiens, UniProt Q99828); assay: FP scrambled-peptide counter screen, 1536-well format; conditions: scrambled-peptide counterscreen; for COUNTERSCREEN Confirm?: YES/NO call; for COUNTERSCREEN Curve Class: qHTS curve class
T2 construct: made in house; host or cells: BL-21 plus RIL cells (E. coli)
T2 sequence (Q99828 1-191): T1 sequence (Q99828 1-191)

[3] = target: T3, CIB1 and αIIb interaction (GST-CIB1 : F-αIIb peptide) (Homo sapiens, UniProt Q99828); assay: FP assay, 384-well format (screen); set-up: 384-well SCREEN Efficacy (%): concentration or dose not given beside the values; conditions: for 384-well SCREEN Efficacy (%) / 384-well SCREEN Confirm? / IC50: F-αIIb peptide; for 384-well SCREEN Confirm?: YES/NO; for IC50: read-out: 384-well SCREEN IC50
T3 construct: made in house; host or cells: BL-21 plus RIL cells (E. coli)
T3 sequence (Q99828 1-191): T1 sequence (Q99828 1-191)

[4] = target: T2, GST-CIB1 : F-scrambled peptide; assay: FP scrambled-peptide counter screen, 384-well format; conditions: F-scrambled peptide; for 384-well COUNTERSCREEN Confirm?: *: Curve in opposite direction; for IC50: read-out: 384-well COUNTERSCREEN IC50
[5] = confirmatory screen, read-out: CONFIRMATORY SCREEN IC50
[6] = qHTS primary screen hits, Table S2
[7] = qHTS primary screen hits, Table S2, read-out: IC50
[8] = qHTS FP screen hits, Table S2, read-out: IC50
[9] = qHTS primary screen hits, Table S2, several classes where COUNT > 1

O=Cc1c(-c2ccccc2)no[n+]1[O-] [NCGC00168371-01]
CONFIRMATORY SCREEN Confirm? ([1]; confirmatory screen): YES
CONFIRMATORY SCREEN Curve Class ([1]; confirmatory screen): -1.2
CONFIRMATORY SCREEN Efficacy (%) ([1]; confirmatory screen): -69%
IC50 [1, 5]: 22.4 µM
Efficacy (%) [1, 6]: -73%
Curve Class [1, 6]: -2.2
IC50 [1, 7]: 50.1 µM
COUNTERSCREEN Efficacy (%) [2]: -14%
COUNTERSCREEN Confirm? [2]: YES
COUNTERSCREEN Curve Class [2]: 4
384-well SCREEN Efficacy (%) [3]: 73%
384-well SCREEN Confirm? [3]: YES
IC50 [3]: 14.1 µM
Confirm and Selective? ([3]; selective toward αIIb: negative curve class and/or IC50 ratio of >3-fold and/or >2-fold efficacy vs scrambled peptide): Inconclusive
384-well COUNTERSCREEN Efficacy (%) [4]: 51%
384-well COUNTERSCREEN Confirm? [4]: Inconclusive
IC50 [4]: 17.7 µM

CCC(=O)NC(c1cccs1)c1cc([N+](=O)[O-])c2cccnc2c1O (stereo not drawn) [NCGC00182956-10]
CONFIRMATORY SCREEN Confirm? ([1]; confirmatory screen): YES
CONFIRMATORY SCREEN Curve Class ([1]; confirmatory screen): -3
CONFIRMATORY SCREEN Efficacy (%) ([1]; confirmatory screen): -53%
IC50 [1, 5]: 50.1 µM
Efficacy (%) ([1]; qHTS FP screen hits, Table S2): -51%
IC50 [1, 8]: 46.6 µM
COUNTERSCREEN Efficacy (%) [2]: -17%
COUNTERSCREEN Confirm? [2]: YES
COUNTERSCREEN Curve Class [2]: 4
384-well SCREEN Efficacy (%) [3]: 23%
IC50 [3]: > 120 µM
384-well COUNTERSCREEN Efficacy (%) [4]: 47%
IC50 [4]: 17.7 µM

C=CCNc1oc(-c2ccc(-c3ccccc3)cc2)nc1C#N.O=C(O)C(F)(F)F [NCGC00183413-01]
CONFIRMATORY SCREEN Confirm? ([1]; confirmatory screen): YES
CONFIRMATORY SCREEN Curve Class ([1]; confirmatory screen): -1.2
CONFIRMATORY SCREEN Efficacy (%) ([1]; confirmatory screen): -66%
IC50 [1, 5]: 17.8 µM
Efficacy (%) [1, 6]: -28%
Curve Class [1, 9]: -1.4
IC50 [1, 7]: 10 µM
COUNTERSCREEN Efficacy (%) [2]: -17%
COUNTERSCREEN Confirm? [2]: YES
COUNTERSCREEN Curve Class [2]: 4
384-well SCREEN Efficacy (%) [3]: 74%
384-well SCREEN Confirm? [3]: YES
IC50 [3]: 7.1 µM
384-well COUNTERSCREEN Efficacy (%) [4]: 58%
IC50 [4]: 7.1 µM

CCc1ccc(/C=C2/SC(=S)NC2=O)cc1 [NCGC00185994-01]
CONFIRMATORY SCREEN Confirm? ([1]; confirmatory screen): YES
CONFIRMATORY SCREEN Curve Class ([1]; confirmatory screen): -1.1
CONFIRMATORY SCREEN Efficacy (%) ([1]; confirmatory screen): -93%
IC50 [1, 5]: 8.9 µM
Efficacy (%) ([1]; qHTS FP screen hits, Table S2): -43%
IC50 [1, 8]: 8.2 µM
COUNTERSCREEN Efficacy (%) [2]: 0%
COUNTERSCREEN Confirm? [2]: YES
COUNTERSCREEN Curve Class [2]: 4
384-well SCREEN Efficacy (%) [3]: 44%
384-well SCREEN Confirm? [3]: YES
IC50 [3]: 17.8 µM
384-well COUNTERSCREEN Efficacy (%) [4]: 68%
384-well COUNTERSCREEN Confirm? [4]: YES
IC50 [4]: > 120 µM

COC(=O)[C@]12CCC(C)(C)C[C@H]1[C@H]1C(=O)C=C3[C@@]4(C)C=C(C#N)C(=O)C(C)(C)[C@@H]4CC[C@@]3(C)[C@]1(C)CC2 [NCGC00186460-01]
CONFIRMATORY SCREEN Confirm? ([1]; confirmatory screen): YES
CONFIRMATORY SCREEN Curve Class ([1]; confirmatory screen): -1.2
CONFIRMATORY SCREEN Efficacy (%) ([1]; confirmatory screen): -71%
IC50 [1, 5]: 7.1 µM
Efficacy (%) ([1]; qHTS FP screen hits, Table S2): -24%
IC50 [1, 8]: 10.8 µM
COUNTERSCREEN Efficacy (%) [2]: -36%
COUNTERSCREEN Confirm? [2]: YES
COUNTERSCREEN Curve Class [2]: -1.2
IC50 ([2]; read-out: COUNTERSCREEN IC50): 14.1 µM
384-well SCREEN Efficacy (%) [3]: 77%
384-well SCREEN Confirm? [3]: YES
IC50 [3]: 3.5 µM
384-well COUNTERSCREEN Efficacy (%) [4]: 29%
384-well COUNTERSCREEN Confirm? [4]: YES
IC50 [4]: > 120 µM

Cc1ccc(S(=O)(=O)Nc2nn3c(=O)c4ccccc4nc3s2)cc1C.O=C(O)C(F)(F)F [NCGC00187578-01]
CONFIRMATORY SCREEN Confirm? ([1]; confirmatory screen): YES
CONFIRMATORY SCREEN Curve Class ([1]; confirmatory screen): -2.2
CONFIRMATORY SCREEN Efficacy (%) ([1]; confirmatory screen): -46%
IC50 [1, 5]: 11.2 µM
Efficacy (%) [1, 6]: -22%
Curve Class [1, 9]: -1.4
IC50 [1, 7]: 14.1 µM
COUNTERSCREEN Efficacy (%) [2]: 39%
COUNTERSCREEN Confirm? [2]: YES
COUNTERSCREEN Curve Class [2]: 4
384-well SCREEN Efficacy (%) [3]: 27%
IC50 [3]: > 120 µM
384-well COUNTERSCREEN Efficacy (%) [4]: 12%
IC50 [4]: > 120 µM
